Values of other authors as cited in patent US6521209B1, “Bifunctional detection agents” (California Institute of Technology, priority 1996, dated 2003).

Details: for stability constant (K), formation constant, logK: Gd(III) complex

| stability constant (K), formation constant, logK | dissociation kinetics (at physiological pH) | Compound |
| --- | --- | --- |
| 28.5 | very slow dissociation kinetics | O=C([O-])CN1CCN(CC(=O)[O-])CCN(CC(=O)O)CCN(CC(=O)[O-])CC1.[Gd+3] [Gd-DOTA] |
| 22.4 | – | O=C([O-])CN(CCN(CC(=O)[O-])CC(=O)O)CCN(CC(=O)[O-])CC(=O)O.[Gd+3] [Gd(DTPA)] |
